Measurements published in patent publication US9724351B2, “Compounds for the treatment of paramoxyvirus viral infections” (priority 2012, dated 2017).

Legend:
[1] = test system: Respiratory Syncytial Virus (RSV) long strain (ATCC#VR-26); experiment: RSV Antiviral Assay (CPE reduction assay); assay type: cell-based; conditions: human respiratory syncytial virus, 120 h; HEp-2 cells infected with RSV long strain, 5 days, CCK-8 readout; bins (Table 2: less than 1 μM; Table 3: equal to or higher than 1 μM and less than 50 μM); read-out: 50% effective concentration (EC50)
Procedure, shortened: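 Cytopathic-effect protection measured after 5 days at 37 °C, 5% CO2 via CCK-8 dehydrogenase readout at 450 nm (630 nm reference), EC50 regressed from mean O.D. Host HEp-2 cells received RSV long strain at 100 TCID50/well; compound 9-point ⅓ series starting 100 μM or 1 μM, 1% DMSO, duplicate wells.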

[2] = Cytotoxicity Determination; assay type: cell-based; conditions: human, HEp-2 cells, without addition of virus, CCK-8 readout, bins (Table 4: greater than 100 μM; Table 5: equal to or less than 100 μM and greater than 10 μM), read-out: 50% cytotoxicity concentration (CC50)
Procedure, shortened: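 CC50 was derived from CCK-8 optical density after a 3-4 h reagent incubation. Before that, cells without virus had been treated for 5 days at 37 °C, 5% CO2 with compound at seven ½-step final concentrations from 100 μM, in duplicate wells.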

| Compound | EC50 [1] | CC50 at 5 days [2] |
| --- | --- | --- |
| COc1ccc(C(=O)N(C)N(C)C(=O)c2cccc(-c3csc4c(F)cccc34)n2)cc1OC [Compound 3103] | 1000 to 50000 nM | 10 to 100 µM |
| COc1cc(C(=O)CNC(=O)c2ccc(OC)c(OC)c2)nc(-c2ccc(-c3c[nH]nn3)cc2)c1 [Compound 1405] | 1000 to 50000 nM | 10 to 100 µM |
| COc1ccc(C(=O)CNC(=O)c2ccc(OCCO)c(C)c2)nc1-c1ccc(F)c(Cl)c1 [Compound 1309] | < 1000 nM | > 100 µM |
| COCC/C(=N/NC(=O)CNC(=O)c1ccc(OC)c(OC)c1O)c1csc2c(F)cccc12 [Compound 400-21] | 1000 to 50000 nM | > 100 µM |
| COc1cc(C(=O)N[C@H](CCO)C(=O)c2ccc(OC)c(-c3ccc(F)c(C(F)(F)F)c3)n2)ccc1OCCO [Compound 1806] | < 1000 nM | > 100 µM |
| COc1ccc(C(=O)CNC(=O)c2ccc(OCCO)cc2)nc1-c1ccc(F)c(Cl)c1 [Compound 1308] | 1000 to 50000 nM | > 100 µM |
| COc1ccc(C(=O)NCC(=O)c2ccc(OC)c(-c3ccc4ncccc4c3)n2)cc1OC [Compound 1507] | 1000 to 50000 nM | 10 to 100 µM |
| COc1cc(C(=O)NCC(=O)N/N=C(\C)c2csc3ccccc23)ccc1OC(C)C [Compound 475] | < 1000 nM | > 100 µM |
| COc1cc(C(=O)NCC(=O)c2ccc(OC)c(-c3ccc(Cl)nc3)n2)ccc1OCCO [Compound 1330] | 1000 to 50000 nM | > 100 µM |
| COc1cc(C(=O)NCC(=O)c2ccc(OC)c(-c3ccc(C(F)(F)F)cc3)n2)ccc1OCCO [Compound 1605] | < 1000 nM | 10 to 100 µM |
| COCc1ccc(C(=O)NCC(=O)c2ccc(OC)c(-c3ccc(F)c(Cl)c3)n2)cc1OC [Compound 1323] | < 1000 nM | 10 to 100 µM |
